Data published in US20060234909A1, “Compositions and methods for increasing drug efficiency” (priority 2003, published 2006).
Read-outs that look alike come from different tables or passages of the source. Primed or numbered codes have the meaning given here. * marks the point of attachment. 10Ca‑PXL = paclitaxel conjugated at C10 via a carbamate; 10Ca‑PXL″ = paclitaxel attached at C10 via carbamate; PEG(13) = PEG13 linker; Piv = CC(C)(C)C(=O)*; OBn = c1ccc(CO*)cc1

How the values were obtained:
[1] = system: MCF-7 cells
[2] = system: HT-29 cells
[3] = system: Normal human foreskin fibroblasts (HFF)
[4] = system: MCF-7 breast carcinoma; test: Cytotoxicity assay (monolayer), MCF-7; type: cell-based; settings: MCF7, ML (monolayer); read-out: MCF7 (EC50 Ave) ML;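 further: cells treated 72 h with 6-8 compound doses versus DMSO vehicle controls, EC50 fitted by 4-parameter dose-response curves, averaged across all tests and lots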
[5] = system: tubulin; test: Fluorescence-based tubulin polymerization assay (MPA; enhancement for paclitaxel, inhibition for vinblastine); type: biochemical
In short: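 Tubulin polymerisation was followed by fluorescence (ex 360/em 405 nm) with 1 mg/ml BSA in all assays. For paclitaxel conjugates, glycerol was omitted. Parent drugs and conjugates were tested at 0.75, 1.5, 3 and 10 micromolar final, and values come from the linear range of the dose responses.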

[6] = system: HUVEC; test: Cytotoxicity assay (monolayer), HUVEC; type: cell-based; settings: ML (monolayer), read-out: HUVEC (EC50 Ave) ML
[7] = system: HT-29 colorectal carcinoma; test: Cytotoxicity assay (monolayer), HT-29; type: cell-based; settings: HT29, ML (monolayer); read-out: HT29 (EC50 Ave) ML;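 further: monolayer cultures tested in triplicate, compound exposure for three days against DMSO vehicle controls, EC50 fitted from dose-response curves and averaged across all tests and lots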
[8] = target: Akt (Homo sapiens, UniProt P31749); test: Akt kinase assay (PKLight ATP utilization, substrate phosphorylation as % of parent peptide); type: biochemical; design: purchased Upstate (Charlottesville, Va.) 14-276
Procedure: Another test may involve monitoring the consumption of ATP. For example, ATP concentrations at time 0 or after 4 hour incubation may be monitored by luciferase reaction (PKLight kit obtained from Cambrex Corporation, One Meadowlands Plaza, East Rutherford, N.J. 07073), which generate a luminescence readout in the presence of ATP. Assays are initiated by mixing a kinase and a peptide in the presence of 40 μM ATP. After 4 hour of incubation at 30° C., PKLight reagent is added and mixed well, and luminescence readout measured. The rate of peptide phosphorylation is then directly related to the rate of decrease in the observed luminescence. Based on the first test, linkers of appropriate lengths and peptides with an effective amount of kinase activity which may be expected to be retained in the drug conjugate may be found.
Human Src (#14-326) and Akt (#14-276) kinases were purchased from Upstate (Charlottesville, Va.). Kinase reactions were carried out in 50 μl kinase reaction cocktail (25 mM Tris-HCl, pH 7.5, 5 μM β-glycerophosphate, 2 mM DTT, 0.1 mM Na3VO4, 10 mM MgCl2, 1 mg/ml BSA, […], 0.5 to 1.0 units enzyme). Substrates (peptide or drug-peptide conjugate in […]) were added (25, 50 and 100 μM) and the reaction was incubated for 2-5 hours at 30° C. PKLight reagent (23 μl) (Cambrex BioSciences, Rockland, Me.) was mixed with […] of the above kinase reaction and ATP utilization relative to no substrate and no ATP controls was determined by measuring luminescence with a SpectraMax Gemini EM plate reader (Molecular Devices, Sunnyvale, Calif.). Peptide substrates for Src and Akt have been described. For examples, see Lou et al. Letters in Peptide Science, 2, 289-296 (1995); Lou et al. Bioorganic & Medicinal Chemistry, 4, 677-682 (1996); Alessi et al. FEBS Letters, 399, 333-338 (1996). Substrate phosphorylation potential was determined from the linear portion of the substrate concentration dose response as a percentage of the activity observed with the parent peptide used for drug conjugation.

[9] = Serum stability in RPMI1640 medium containing 10% fetal bovine serum; type: in vitro ADME; settings: for remaining at 4 h, 10 μM / remaining at 8 h, 10 μM / remaining at 24 h, 10 μM / remaining at 72 h, 10 μM / half-life at 10 μM: bovine; for remaining at 4 h, 10 μM: read-out: Relative Percent Remaining at 4 hr; for remaining at 8 h, 10 μM: read-out: Relative Percent Remaining at 8 hr; for remaining at 24 h, 10 μM: read-out: Relative Percent Remaining at 24 hr; for remaining at 72 h, 10 μM: read-out: Relative Percent Remaining at 72 hr; for half-life at 10 μM: read-out: T½ (converted)
Procedure: The stability of conjugates was measured in RPMI1640 cell culture medium containing 10% fetal bovine serum. The serum-containing medium was pre-warmed at 37° C. for 3 min prior to addition of test articles. Test articles, prepared in DMSO as 5 mM stocks, were added to the cell culture media to a final concentration of 10 μM. Aliquots ([…]) were withdrawn in triplicate at 0, 4, 8, 24 and 72 hours and combined with the same volume of ice-cold acetonitrile to terminate the reaction. The mixture was centrifuged at 2,000×g for 10 minutes. One part of the supernatant was mixed with four parts of deionized water to bring down the percentage of organic solvent. The diluted samples were then assayed by LC/MS for the test article. The natural log of the percent remaining was plotted versus time. A linear fit was used to determine the rate constant. The fit was truncated after the percent of remaining test article was less than 10%. The elimination half-lives associated with the disappearance of test articles were determined to compare their relative stability. The assays were carried out by Absorption Systems (Exton, Pa.).

[10] = system: tumor cells vs normal cells; test: Cytotoxic selectivity index (normal cells in monolayer vs tumor cells in soft agar)
[11] = read-out: MCF7 (EC50 Ave) SA, MCF7, SA (soft agar)
[12] = read-out: HT29 (EC50 Ave) SA, HT29, SA (soft agar)
[13] = read-out: HFF (EC50 Ave) ML, HFF, ML (monolayer)
[14] = read-out: MCF-7 Soft Agar EC50, MCF-7 tumor cells, soft agar, 10-14 days, mean ± SD
[15] = read-out: HT-29 Soft Agar EC50, HT-29 tumor cells, soft agar, 10-14 days, mean ± SD
[16] = read-out: HFFMonolayer EC50, HFF normal cells, monolayer, 72 hours, mean ± SD

Akt, sequence (P31749 whole entry): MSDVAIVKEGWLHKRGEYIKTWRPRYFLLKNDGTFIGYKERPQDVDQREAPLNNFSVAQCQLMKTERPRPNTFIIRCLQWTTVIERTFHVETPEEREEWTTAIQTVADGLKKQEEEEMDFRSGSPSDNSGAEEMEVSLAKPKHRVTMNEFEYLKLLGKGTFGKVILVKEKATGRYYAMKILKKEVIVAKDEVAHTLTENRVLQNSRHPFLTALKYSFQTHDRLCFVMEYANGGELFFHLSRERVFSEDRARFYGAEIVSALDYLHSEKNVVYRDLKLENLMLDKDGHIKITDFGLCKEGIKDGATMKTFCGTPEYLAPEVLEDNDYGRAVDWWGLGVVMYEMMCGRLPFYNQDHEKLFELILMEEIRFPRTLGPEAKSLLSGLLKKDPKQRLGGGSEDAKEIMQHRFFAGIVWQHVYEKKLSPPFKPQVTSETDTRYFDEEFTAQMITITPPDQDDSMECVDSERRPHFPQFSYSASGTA

Compound	EC50 [1, 11]	EC50 [2, 12]	EC50 [3, 13]	EC50 [4]	Ave. MPA Act. [5]	EC50 [6]	EC50 [7]	Ave. Akt Kinase Act. [8]	EC50 [1, 14]	EC50 [2, 15]	EC50 [3, 16]	Relative Percent Remaining at 0 hr [9]	remaining at 4 h, 10 μM [9]	remaining at 8 h, 10 μM [9]	remaining at 24 h, 10 μM [9]	remaining at 72 h, 10 μM [9]	half-life at 10 μM [9]	Cytotoxic Selectivity Index HFF/HT29 [10]	Cytotoxic Selectivity Index HFF/MCF7 [10]
Pv-GRPRTSSFAE(Bzl)G-PEG(13)-10Ca-PXL (Piv-GRPRTSSFAE(OBn)G-{PEG(13)-10Ca‑PXL″})	> 0.1 µM	> 0.1 µM	> 0.1 µM	> 0.1 µM	C (C>80)	> 0.1 µM	> 0.1 µM	C (C>40)											
BOC-RPRTSSF-PEG(13)-10Ca-PXL (N-BOC; PEG(13) linker; paclitaxel conjugate)		> 0.1 µM	0.02 to 0.1 µM		C (C>80)	> 0.1 µM		C (C>40)											
CC[C@H](C)[C@H](NC(=O)[C@H](Cc1ccc(O)cc1)NC(=O)OCc1ccccc1)C(=O)N[C@@H](Cc1ccc(O)cc1)C(=O)NCC(=O)N[C@@H](CO)C(=O)N[C@@H](Cc1ccccc1)C(=O)N[C@@H](CCCCN)C(=O)NCCOCCOCCOCCNC(=O)[C@@]1(O)[C@H](O)[C@]2(CC)C=CCN3CC[C@@]4(c5cc([C@@]6(C(=O)OC)C[C@@H]7CN(CCc8c6[nH]c6ccccc86)C[C@](O)(CC)C7)c(OC)cc5N(C)[C@@H]14)[C@@H]32 [CBz-YIYGSFK-PEG(11)-3Am-VBL]	> 0.1 µM	> 0.1 µM	> 0.1 µM	> 0.1 µM		> 0.1 µM	> 0.1 µM		0.156 ± 0.037 µM	0.464 ± 0.351 µM	0.655 ± 0.186 µM	100%	88%	102%	100%	61%	> 72 h	1.4	4.2
CBz-RPRTSSF-PEG(13)-10Ca-PXL x (N-CBz; PEG(13) linker; paclitaxel conjugate; salt)	> 0.1 µM	> 0.1 µM	> 0.1 µM	> 0.1 µM	C (C>80)	> 0.1 µM	> 0.1 µM	C (C>40)											
CC[C@H](C)[C@H](NC(=O)[C@H](Cc1ccc(O)cc1)NC(=O)C(C)(C)C)C(=O)N[C@@H](Cc1ccc(O)cc1)C(=O)NCC(=O)N[C@@H](CO)C(=O)N[C@@H](Cc1ccccc1)C(=O)N[C@@H](CCCNC(=N)N)C(=O)NCCCOCCOCCOCCCNC(=O)O[C@H]1C(=O)[C@@]2(C)[C@H]([C@H](OC(=O)c3ccccc3)[C@]3(O)C[C@H](OC(=O)[C@H](O)[C@@H](NC(=O)c4ccccc4)c4ccccc4)C(C)=C1C3(C)C)[C@]1(OC(C)=O)CO[C@@H]1C[C@@H]2O [Pv-YIYGSFR-PEG(13)-10Ca-PXL]	0.02 to 0.1 µM	> 0.1 µM	> 0.1 µM	> 0.1 µM	B (B=50-80)	> 0.1 µM	> 0.1 µM		0.08 ± 0.013 µM	0.175 ± 0.043 µM	2.14 µM	100%	73%	63%	63%	64%	> 72 h	12.3	26.6
CBz-RPRTSSF-PEG(29)-3Am-VBL (N-CBz; PEG(29) linker; vinblastine conjugate)	> 0.1 µM		> 0.1 µM	> 0.1 µM	B (B=50-80)	> 0.1 µM	> 0.1 µM	C (C>40)											
Pv-GRPRAAAFAEG-PEG(13)-10Ca-PXL (Piv-GRPRAAAFAEG-{PEG(13)-10Ca‑PXL}; also: 2 TFA salt)	0.02 to 0.1 µM	0.02 to 0.1 µM	> 0.1 µM	> 0.1 µM	C (C>80)	> 0.1 µM	> 0.1 µM	C (C>40)											
